Literature values as cited in patent US20070298069A1, “Medical devices for release of low solubility therapeutic agents” (Boston Scientific Scimed, Inc., priority 2006, published 2007).

Tested on: most gram positive and gram negative aerobic and anaerobic bacteria, some yeast and fungi
Conditions: in most organisms tested

Oc1cc(Cl)ccc1Oc1ccc(Cl)cc1Cl [triclosan]
MIC: < 0.3 ppm
